Drawing on patent publication US12435072B2, “Compounds” (Vicore Pharma AB, priority 2019, dated 2025), this text covers inhibition and IC50 for seven compounds.

In data set [1] the target is T1, CYP2B6 (Homo sapiens, UniProt P20813).
T1 construct: incubated with human liver microsomes; tissue Eurofins ITEMG232; host or cells: human liver microsomes
T1 sequence (P20813 1-491): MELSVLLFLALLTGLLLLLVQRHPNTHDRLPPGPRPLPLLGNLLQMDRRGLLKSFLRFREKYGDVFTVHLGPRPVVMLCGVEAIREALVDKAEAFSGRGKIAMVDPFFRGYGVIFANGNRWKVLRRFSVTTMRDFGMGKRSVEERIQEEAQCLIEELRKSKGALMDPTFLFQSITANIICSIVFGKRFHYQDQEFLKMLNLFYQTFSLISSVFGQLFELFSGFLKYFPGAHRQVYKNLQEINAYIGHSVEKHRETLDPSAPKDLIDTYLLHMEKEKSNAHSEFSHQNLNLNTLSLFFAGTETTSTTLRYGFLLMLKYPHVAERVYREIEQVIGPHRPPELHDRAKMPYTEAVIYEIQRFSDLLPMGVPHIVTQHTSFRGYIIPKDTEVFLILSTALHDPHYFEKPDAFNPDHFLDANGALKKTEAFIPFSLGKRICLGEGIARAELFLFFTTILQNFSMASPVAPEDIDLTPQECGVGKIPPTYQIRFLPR
The experiment in a line: CYP inhibition in human liver microsomes, CYP2B6. The data set is classed as in vitro ADME. The settings on record: probe bupropion, substrate bupropion, read-out: CYP2B6 Inh %. The protocol:
(§1) The following substrates were used: CYP1A phenacetin, CYP2B6 bupropion, CYP2C8 paclitaxel and amodiaquine, CYP2C9 diclofenac, CYP2C19 omeprazole, CYP2D6 dextromethorphan, CYP3A midazolam and testosterone. At the end of the incubation, the formation of metabolite was monitored by HPLC-MS/MS as the peak area response.

For data set [2], the system named is CYP3A4&5. The experiment in a line: CYP inhibition in human liver microsomes, CYP3A4&5 (testosterone). The settings on record: probe testosterone, substrate testosterone, read-out: CYP3A4&5 testosterone Inh %. It is filed as in vitro ADME. The protocol:
as §1

The target in data set [3] is CYP3A4 (Homo sapiens, UniProt P08684). Nature of the data set: CYP inhibition in human liver microsomes, CYP3A4 (midazolam). The settings on record: probe midazolam, substrate midazolam, read-out: CYP3A4 midazolam Inh %. The data set is classed as in vitro ADME. Further details: incubated with human liver microsomes; tissue Eurofins ITEMG232; host or cells: human liver microsomes. The method, then: as §1
Sequence of CYP3A4 (P08684 whole entry): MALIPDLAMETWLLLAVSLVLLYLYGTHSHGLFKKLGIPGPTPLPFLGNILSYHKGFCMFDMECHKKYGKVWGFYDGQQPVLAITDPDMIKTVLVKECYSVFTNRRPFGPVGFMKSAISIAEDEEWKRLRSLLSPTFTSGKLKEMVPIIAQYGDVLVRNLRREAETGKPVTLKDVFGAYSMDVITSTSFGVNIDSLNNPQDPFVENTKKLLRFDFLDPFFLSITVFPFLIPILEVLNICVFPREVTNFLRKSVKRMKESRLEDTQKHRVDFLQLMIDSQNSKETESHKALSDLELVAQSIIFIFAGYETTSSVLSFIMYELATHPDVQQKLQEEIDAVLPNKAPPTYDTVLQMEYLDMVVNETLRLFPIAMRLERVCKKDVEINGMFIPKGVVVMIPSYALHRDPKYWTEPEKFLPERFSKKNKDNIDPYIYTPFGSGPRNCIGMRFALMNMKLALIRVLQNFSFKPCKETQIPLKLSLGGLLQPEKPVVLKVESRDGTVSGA

Data set [4] concerns the target T2, CYP2D6 (Homo sapiens, UniProt P10635).
T2 construct: incubated with human liver microsomes; tissue Eurofins ITEMG232; host or cells: human liver microsomes
Nature of the data set: CYP inhibition in human liver microsomes, CYP2D6. Conditions: probe dextromethorphan, substrate dextromethorphan, read-out: CYP2D6 Inh %. The data set is classed as in vitro ADME. An outline of the steps:
(§2)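 Human liver microsomes were incubated with isoform-selective probe substrates: diclofenac for CYP2C9, dextromethorphan for CYP2D6, and paclitaxel and amodiaquine for CYP2C8. After incubation, metabolite formation was measured by HPLC-MS/MS as peak area response.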

Data set [5] concerns the target T3, CYP2C19 (Homo sapiens, UniProt P33261).
T3 construct: incubated with human liver microsomes; tissue Eurofins ITEMG232; host or cells: human liver microsomes
The experiment in a line: CYP inhibition in human liver microsomes, CYP2C19. The data set is classed as in vitro ADME. The settings on record: probe omeprazole, substrate omeprazole, read-out: CYP2C19 Inh %. The method, then:
as §1

Data set [6] concerns the target T4, human recombinant AT1 receptor (Homo sapiens, UniProt P30556).
T4 construct: purchased Eurofins ITEM24
T4 sequence (P30556 1-359): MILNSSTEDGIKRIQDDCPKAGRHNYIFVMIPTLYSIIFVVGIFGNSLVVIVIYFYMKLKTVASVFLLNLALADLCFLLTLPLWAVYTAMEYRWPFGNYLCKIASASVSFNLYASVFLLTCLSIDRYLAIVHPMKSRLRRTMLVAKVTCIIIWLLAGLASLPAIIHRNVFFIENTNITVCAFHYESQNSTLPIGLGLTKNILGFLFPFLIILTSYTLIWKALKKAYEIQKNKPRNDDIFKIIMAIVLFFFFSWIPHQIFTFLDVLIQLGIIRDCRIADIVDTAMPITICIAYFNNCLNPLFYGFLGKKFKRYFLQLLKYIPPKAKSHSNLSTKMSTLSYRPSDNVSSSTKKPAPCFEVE
The experiment in a line: Binding to AT1 receptor, radiometric scintillation assay (Eurofins). The settings on record: ligand 125I(sar1,Ile8)-AT-II, tested at 1 and 10 μM. The method, then: (§3) Compounds were evaluated for binding to the human recombinant AT2 and AT1 receptor according to Eurofins protocol ITEM26 and ITEM24 using a radiometric scintillation assay.

For data set [7], the target named is T5, CYP1A (Homo sapiens, UniProt P05177).
T5 construct: incubated with human liver microsomes; tissue Eurofins ITEMG232; host or cells: human liver microsomes
T5 sequence (P05177 1-516): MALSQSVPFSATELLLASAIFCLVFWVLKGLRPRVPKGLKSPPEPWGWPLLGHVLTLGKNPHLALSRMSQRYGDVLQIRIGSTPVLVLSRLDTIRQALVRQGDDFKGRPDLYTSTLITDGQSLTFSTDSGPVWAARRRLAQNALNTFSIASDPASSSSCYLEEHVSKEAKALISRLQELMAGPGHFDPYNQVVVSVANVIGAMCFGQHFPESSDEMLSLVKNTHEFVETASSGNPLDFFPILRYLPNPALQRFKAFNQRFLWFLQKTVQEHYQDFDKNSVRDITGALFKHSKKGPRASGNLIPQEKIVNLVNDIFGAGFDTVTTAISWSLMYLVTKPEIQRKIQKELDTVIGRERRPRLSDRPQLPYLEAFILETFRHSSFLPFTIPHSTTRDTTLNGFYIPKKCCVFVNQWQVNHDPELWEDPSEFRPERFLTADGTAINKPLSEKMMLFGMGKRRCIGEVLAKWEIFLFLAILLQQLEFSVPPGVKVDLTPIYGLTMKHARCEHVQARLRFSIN
Nature of the data set: CYP inhibition in human liver microsomes, CYP1A. It is filed as in vitro ADME. The settings on record: probe phenacetin, substrate phenacetin, read-out: CYP1A Inh %. The method, then:
as §1

Data set [8] addresses T6, human recombinant AT2 receptor (Homo sapiens, UniProt P50052).
T6 construct: purchased Eurofins ITEM26
T6 sequence (P50052 1-363): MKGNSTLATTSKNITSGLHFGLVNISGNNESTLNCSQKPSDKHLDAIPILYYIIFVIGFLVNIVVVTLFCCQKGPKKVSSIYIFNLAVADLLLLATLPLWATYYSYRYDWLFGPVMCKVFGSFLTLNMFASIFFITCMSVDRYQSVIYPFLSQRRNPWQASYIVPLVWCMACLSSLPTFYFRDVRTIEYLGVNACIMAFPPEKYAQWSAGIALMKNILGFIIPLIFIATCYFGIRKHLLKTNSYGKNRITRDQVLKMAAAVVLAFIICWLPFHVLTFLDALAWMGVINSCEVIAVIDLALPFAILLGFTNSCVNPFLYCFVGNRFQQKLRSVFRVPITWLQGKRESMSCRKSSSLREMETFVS
Nature of the data set: Binding to AT2 receptor, radiometric scintillation assay (Eurofins). Conditions: ligand 125I CGP 42112A, tested at 1, 10, 100 and 1000 nM. The method, then: as §3

Data set [9] deals with CYP2C9 (Homo sapiens, UniProt P11712). The experiment in a line: CYP inhibition in human liver microsomes, CYP2C9. Further details: incubated with human liver microsomes; tissue Eurofins ITEMG232; host or cells: human liver microsomes. The settings on record: probe diclofenac, substrate diclofenac, read-out: CYP2C9 Inh %. It is filed as in vitro ADME. An outline of the steps:
as §2

T3 sequence (P33261 whole entry): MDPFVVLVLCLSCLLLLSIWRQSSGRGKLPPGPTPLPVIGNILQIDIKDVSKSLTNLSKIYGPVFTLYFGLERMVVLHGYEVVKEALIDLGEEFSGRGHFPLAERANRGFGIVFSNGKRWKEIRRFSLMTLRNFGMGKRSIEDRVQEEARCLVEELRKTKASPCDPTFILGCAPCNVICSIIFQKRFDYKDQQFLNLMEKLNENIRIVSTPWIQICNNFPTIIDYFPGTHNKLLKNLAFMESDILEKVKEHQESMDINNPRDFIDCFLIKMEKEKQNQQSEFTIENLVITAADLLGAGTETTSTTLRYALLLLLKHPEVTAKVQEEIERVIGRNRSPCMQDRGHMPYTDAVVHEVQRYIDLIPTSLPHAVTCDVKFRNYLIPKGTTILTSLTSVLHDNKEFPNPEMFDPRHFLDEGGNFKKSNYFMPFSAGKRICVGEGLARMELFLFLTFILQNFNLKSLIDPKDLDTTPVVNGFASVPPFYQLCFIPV
T2 sequence (P10635 whole entry): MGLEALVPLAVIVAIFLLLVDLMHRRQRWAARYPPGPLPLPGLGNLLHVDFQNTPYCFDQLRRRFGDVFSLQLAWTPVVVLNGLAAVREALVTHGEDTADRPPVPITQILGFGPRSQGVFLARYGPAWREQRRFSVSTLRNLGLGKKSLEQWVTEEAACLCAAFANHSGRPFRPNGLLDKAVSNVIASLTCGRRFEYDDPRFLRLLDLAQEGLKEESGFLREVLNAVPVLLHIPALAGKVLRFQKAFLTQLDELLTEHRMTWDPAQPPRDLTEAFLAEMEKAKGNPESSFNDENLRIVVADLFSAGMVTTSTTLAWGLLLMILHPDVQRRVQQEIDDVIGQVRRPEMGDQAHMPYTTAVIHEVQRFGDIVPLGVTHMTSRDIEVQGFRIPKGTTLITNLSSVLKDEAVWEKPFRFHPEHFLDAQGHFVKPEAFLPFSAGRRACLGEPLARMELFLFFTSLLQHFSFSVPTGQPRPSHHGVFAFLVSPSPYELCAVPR
Sequence of CYP2C9 (P11712 whole entry): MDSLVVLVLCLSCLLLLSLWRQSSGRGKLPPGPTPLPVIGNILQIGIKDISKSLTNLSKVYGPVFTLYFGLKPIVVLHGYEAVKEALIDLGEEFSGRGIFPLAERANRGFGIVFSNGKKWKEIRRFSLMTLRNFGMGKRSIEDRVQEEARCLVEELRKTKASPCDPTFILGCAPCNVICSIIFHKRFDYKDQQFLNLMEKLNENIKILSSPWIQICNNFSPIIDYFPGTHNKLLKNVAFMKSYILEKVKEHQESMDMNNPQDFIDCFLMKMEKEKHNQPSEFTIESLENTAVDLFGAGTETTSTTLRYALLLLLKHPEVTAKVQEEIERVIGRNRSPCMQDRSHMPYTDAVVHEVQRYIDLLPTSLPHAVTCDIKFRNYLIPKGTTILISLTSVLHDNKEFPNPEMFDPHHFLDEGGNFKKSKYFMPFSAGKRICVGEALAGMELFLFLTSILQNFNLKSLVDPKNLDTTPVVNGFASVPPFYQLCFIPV

`Cc1nccn1Cc1ccc(-c2cc(CC(C)C)sc2S(=O)(=O)NC(=O)NCc2nccn2C)cc1F` [Example 15, 1-(3-{3-Fluoro-4-[(2-methyl-1H-imidazol-1-yl)methyl]phenyl}-5-isobutyl-2-thienylsulfonyl)-3-[(1-methyl-1H-imidazol-2-yl)methyl]urea]: the inhibition at 10 µM amounted to 63% in [1]; 12% in data set [2]; 38% in data set [3]; 53% in data set [4]; 73% in data set [5]; 20% in data set [7]. For the same compound, in data set [9], the inhibition at 10 µM was found to be 30%. In addition, the values for the half-maximal inhibitory concentration (IC50) in data set [6] and in [8] were 463 µM and 0.0049 µM, respectively.

In the case of `Cc1nccn1Cc1ccc(-c2cc(CC(C)C)sc2S(=O)(=O)NC(=O)NC(C)c2ccccn2)cc1F` (stereo not drawn) [Example 25, 3-(3-{3-Fluoro-4-[(2-methyl-1H-imidazol-1-yl)methyl]phenyl}-5-isobutyl-2-thienylsulfonyl)-1-[1-(2-pyridyl)ethyl]urea], the inhibition at 10 µM in [1] was 23%; in data set [2], 15%; in [3], 16%; in data set [4] it was 16%; in [5], 56%; in data set [7] it was 8%. In addition, the inhibition at 10 µM in data set [9] came to 50%. Besides, the IC50 in [6] was 30 µM; in data set [8], 0.0025 µM.

As for `CCc1nccn1Cc1ccc(-c2cc(CC(C)C)sc2S(=O)(=O)NC(=O)NCc2ccc(F)cc2)cc1F.O=C(O)C(F)(F)F` [Example 32, 3-[(3-{4-[(2-ethyl-1H-imidazol-1-yl)methyl]-3-fluorophenyl}-5-(2-methylpropyl)thiophen-2-yl)sulfonyl]-1-[(4-fluorophenyl)methyl] urea trifluoroacetic acid], the inhibition at 10 µM in data set [1] was 25%; in data set [2] it was 10%; in data set [3], 35%; in data set [4], 39%; in [5], 67%; in data set [7], -26%. For the same compound, in data set [9], the inhibition at 10 µM stood at 49%. Besides, the figures for the IC50 in [6] and in [8] were 5 µM and 0.0016 µM, respectively.

As for `CCCNC(=O)NS(=O)(=O)c1sc(CC(C)C)cc1-c1ccc(Cn2ccnc2CC)c(F)c1.O=C(O)C(F)(F)F` [Example 33, 1-[(3-{4-[(2-ethyl-1H-imidazol-1-yl)methyl]-3-fluorophenyl}-5-(2-methylpropyl)thiophen-2-yl)sulfonyl]-3-propylurea trifluoroacetic acid], the inhibition at 10 µM in data set [1] was 37%; in data set [2], 11%; in data set [3] it was -37%; in data set [4], 18%; in data set [5], 26%; in [7], 14%. Moreover, the inhibition at 10 µM in [9] stood at 34%. In addition, the IC50 in data set [6] amounted to 19 µM; in data set [8], 0.0051 µM.

Take `Cc1nccn1Cc1ccc(-c2cc(CC(C)C)sc2S(=O)(=O)NC(=O)NCc2ccc(F)c(F)c2)cc1F.O=C(O)C(F)(F)F` [Example 34, 1-[(3,4-difluorophenyl)methyl]-3-[(3-{3-fluoro-4-[(2-methyl-1H-imidazol-1-yl)methyl]phenyl}-5-(2-methylpropyl)thiophen-2-yl)sulfonyl]urea trifluoroacetic acid]: the inhibition at 10 µM in data set [1] is 57%; in [2] it was 60%; in [3], 74%; in data set [4], 40%; in data set [5] it was 80%; in [7], -6%. Besides, the inhibition at 10 µM in data set [9] was 75%. Moreover, the figures for the IC50 in data set [6] and in [8] were 21 µM and 0.0052 µM, respectively.

Consider `Cc1nccn1Cc1ccc(-c2cc(CC(C)C)sc2S(=O)(=O)NC(=O)NCc2cccs2)cc1F.O=C(O)C(F)(F)F` [Example 35, 1-[(3-{3-fluoro-4-[(2-methyl-1H-imidazol-1-yl)methyl]phenyl}-5-(2-methylpropyl)thiophen-2-yl)sulfonyl]-3-[(thiophen-2-yl)methyl]urea trifluoroacetic acid], for which the inhibition at 10 µM in [1] was 46%; in data set [2] it was 25%; in [3] it was 26%; in data set [4] it was 45%; in data set [5], 60%; in [7] it was 20%. Further, the inhibition at 10 µM in data set [9] was 71%. In addition, the IC50 in [6] turned out to be 8 µM; in data set [8], 0.00063 µM.

Take `Cc1nccn1Cc1ccc(-c2cc(CC(C)C)sc2S(=O)(=O)NC(=O)NCc2cc(Cl)ccn2)cc1F.O=C(O)C(F)(F)F` [Example 38, 1-[(4-chloropyridin-2-yl)methyl]-3-[(3-{3-fluoro-4-[(2-methyl-1H-imidazol-1-yl)methyl]phenyl}-5-(2-methylpropyl)thiophen-2-yl)sulfonyl]urea trifluoroacetic acid]: the inhibition at 10 µM in data set [1] came out at 25%; in data set [2] it was 13%; in data set [3] it was 22%; in [4], 19%; in data set [5] it was 58%; in data set [7], 13%. In addition, in data set [9], the inhibition at 10 µM was determined as 48%. Further, the half-maximal inhibitory concentration (IC50) was determined as 25 µM in [6] and 0.0166 µM in [8].
